For assay [1], the system named is HCV replicon in 5-2 Luc replicon-comprising cells. Briefly: HCV replicon assay, luciferase readout (HEPC_REPLICON-LUC). In kind it is cell-based. The following applies: Hepatitis C virus; 5-2 Luc replicon cells, 50% reduction in luciferase emission; read-out: HEPC_REPLICON-LUC Result Value (IC50). From the text:
In one embodiment, the inhibitory activity of the metabolically active agent of the prodrug can be confirmed in a replicon assay that assesses the ability of a test compound to block or inhibit HCV replication in replicon cells. One example of a suitable replicon assay is the liver cell-line Huh 7-based replicon assay described in Lohmann et al., 1999, Science 285:110-113. A specific example of this replicon assay which utilizes luciferase translation is provided in the Examples Section. In one embodiment of this assay, the amount of test prodrug that yields a 50% reduction in translation as compared to a control cell (IC50) may be determined.
The inhibitory activity of certain prodrugs of the invention, which may inhibit HCV translation or replication prior to metablism and/or are metabolized into active agents, was confirmed using an HCV replicon assay. The HCV replicon can include such features as the HCV 5′ untranslated region including the HCV IRES, the HCV 3′ untranslated region, selected HCV genes encoding HCV polypeptides, selectable markers, and a reporter gene such as luciferase, GFP, etc. In the assay, actively dividing 5-2 Luc replicon-comprising cells (obtained from Ralf Bartenschlager; see Lohmann et al., 1999, Science 285:110-113) were seeded at a density of between about 5,000 and 7,500 cells/well onto 96 well plates (about 90 μl of cells per well) and incubated at 37° C. and 5% CO2 for 24 hours. Then, the test prodrug (in a volume of about 10 μl) was added to the wells at various concentrations and the cells were incubated for an additional 24-48 hours before luciferase assay. The media was aspirated from each well and Bright-Glo (Promega, Madison, Wis.) luciferase assay reagents were added to each well according to the manufacturer's instructions. Briefly, the Bright-Glo reagent was diluted 1:1 with PBS and 100 μl of diluted reagent was added to each well. After 5 min of incubation at room temperature, luciferin emission was quantified with a luminometer. In this assay, the amount of test prodrug that yielded a 50% reduction in luciferase emission (IC50) was determined. This IC50 value may represent the antiviral activity of the prodrug itself, the activity of prodrug transformed into its active metabolized form, or a combination of the two.

Assay [2] has as its system HCV NS5A protein in 9-13 replicon cells. As to the kind of experiment: Quantitative Western blot replicon assay (HEPC_REPLICON-ICWESTERN). In kind it is cell-based, Hepatitis C virus (HCV). The following applies: Hepatitis C virus; 9-13 replicon cells, 50% reduction in NS5A protein; read-out: HEPC_REPLICON-ICWESTERN Result Value (IC50). As for the experimental part:
Alternatively, the inhibitory activity of the metabolically active agents of the prodrugs can be confirmed using a quantitative Western immunoblot assay utilizing antibodies specific for HCV non-structural proteins, such as NS3, NS4A NS5A and NS5B. In one embodiment of this assay, replicon cells are treated with varying concentrations of test prodrug to determine the concentration of the metabolically active agent of the test prodrug that yields a 50% reduction in the amount of a non-structural protein produced as compared to a control sample (IC50). A single non-structural protein may be quantified or multiple non-structural proteins may be quantified. Antibodies suitable for carrying out such immunoblot assays are available commercially (e.g., from BIODESIGN International, Saco, Me.).
Certain prodrugs of the invention, which may inhibit HCV translation or replication prior to metablism and/or are metabolized into active agents, were also tested for their ability to inhibit HCV replication using a quantitative Western blot analysis with antibodies specific for the HCV NS5A or other non-structural proteins. Actively dividing 9-13 replicon cells were seeded into 6-well plates at a density of 1×10^5 cells/well in a volume of 2 ml/well and incubated at 37° C. and 5% CO2 for 24 hours. Various concentrations of test prodrugs (in a volume of 10 ul) were added to the wells and the cells incubated for another 48 hours. Protein samples were prepared from the cultured cells, resolved on a SDS-PAGE gel and transferred to a nitrocellulose membrane. The membrane was blocked with 5% non-fat milk in PBS for 1 hour at room temperature. Primary antibody (anti NS5A antibody; BIODESIGN International, Saco, Me.) incubation was performed for 1 hour at room temperature, after which the membrane was washed 3 times (for 15 min per time) with PBST (PBS plus 0.1% Tween 20). Horseradish peroxidase conjugated secondary antibody incubation was performed for 1 hour at room temperature and the membrane was washed 3 times (for 15 min per time) with PBST. The membrane was then soaked in substrate solution (Pierce) and exposed to a film or quantified using an imager. In this assay, the amount of test prodrug that is believed to be transformed into an active agent under the given conditions that yielded a 50% reduction in the amount of NS5A protein translated as compared to a control sample (IC50) was determined.
Background: Immunoblotting shows a protein as a band on a membrane.

Consider 18 molecules from US7498353B2, “Heterocyclic anti-viral compounds comprising metabolizable moieties and their uses” (priority 2005, dated 2009).

The structures appear in SMILES notation.

The term IC50 denotes the concentration needed to halve the response being measured. For the molecule `CC(C)[C@H](NC(=O)OC(C)(C)C)C(=O)N[C@H](CN(C(=O)C(Cl)Cl)c1cccc(-c2cc(-c3c(Cl)cccc3Cl)no2)c1)C(C)C` [Cpd. No. 27, tert-Butyl (S)-1-((S)-1-(2,2-Dichloro-N-(3-(3-(2,6-dichlorophenyl)isoxazol-5-yl)phenyl)acetamido)-3-methylbutan-2-ylamino)-3-methyl-1-oxobutan-2-ylcarbamate], the 50% inhibitory concentration (IC50) in assay [1] is above 20 µM.

Consider `CC(C)C(NC(=O)C(NC(=O)OC(C)(C)C)C(C)C)C(=O)CCN(C(=O)C(Cl)Cl)c1ccnc(-c2cc(-c3c(Cl)cccc3Cl)no2)c1` (centres unmarked) [Cpd. No. 47, tert-Butyl 1-(6-(2,2-Dichloro-N-(2-(3-(2,6-dichlorophenyl)isoxazol-5-yl)pyridin-4-yl)acetamido)-2-methyl-4-oxohexan-3-ylamino)-3-methyl-1-oxobutan-2-ylcarbamate], for which the IC50 in assay [2] and in assay [1] was below 1 µM throughout.

In the case of `CCC(C)C(N)C(=O)CCN(C(=O)C(Cl)Cl)c1ccnc(-c2cc(-c3c(Cl)cccc3Cl)no2)c1` (centres unmarked) [Cpd. No. 59, N-(4-Amino-5-methyl-3-oxoheptyl)-2,2-dichloro-N-(2-(3-(2,6-dichlorophenyl)isoxazol-5-yl)pyridin-4-yl)acetamide], the IC50 in assay [2] and in assay [1] was below 1 µM each time.

Regarding `CC[C@H](C)[C@H](NC(=O)OC(C)(C)C)C(=O)NCCN(C(=O)C(Cl)Cl)c1cccc(-c2cc(-c3c(Cl)cccc3Cl)no2)c1` [Cpd. No. 29, tert-Butyl (2S,3S)-1-(2-(2,2-Dichloro-N-(3-(3-(2,6-dichlorophenyl)isoxazol-5-yl)phenyl)acetamido)ethylamino)-3-methyl-1-oxopentan-2-ylcarbamate], in assay [1], the concentration for half-maximal inhibition (IC50) is above 20 µM.

Consider `NCC(=O)CCN(C(=O)C(Cl)Cl)c1ccnc(-c2cc(-c3c(Cl)cccc3Cl)no2)c1` [Cpd. No. 60, N-(4-Amino-3-oxobutyl)-2,2-dichloro-N-(2-(3-(2,6-dichlorophenyl)isoxazol-5-yl)pyridin-4-yl)acetamide], for which the IC50 in assay [2] was 1 to 20 µM; in assay [1], below 1 µM.

As to `CC(C)[C@@H](NC(=O)OCN(C(=O)C(Cl)Cl)c1ccnc(-c2cc(-c3c(Cl)cccc3Cl)no2)c1)C(=O)OC(C)(C)C` [Cpd. No. 58, (R)-tert-Butyl 2-(((2,2-Dichloro-N-(2-(3-(2,6-dichlorophenyl)isoxazol-5-yl)pyridin-4-yl)acetamido)methoxy)carbonylamino)-3-methylbutanoate], the values for the IC50 in assay [2] and in assay [1] were 1 to 20 µM and above 20 µM, respectively.

As to `CC(C)[C@@H](N)C(=O)CCN(C(=O)C(Cl)Cl)c1ccnc(-c2cc(-c3c(Cl)cccc3Cl)no2)c1` [Cpd. No. 61, (R)-N-(4-Amino-5-methyl-3-oxohexyl)-2,2-dichloro-N-(2-(3-(2,6-dichlorophenyl)isoxazol-5-yl)pyridin-4-yl)acetamide], in assay [1], the IC50 is below 1 µM.

`CC(C)[C@H](NC(=O)OC(C)(C)C)C(=O)NCCN(C(=O)C(Cl)Cl)c1cccc(-c2cc(-c3c(Cl)cccc3Cl)no2)c1` [Cpd. No. 30, (S)-tert-Butyl 1-(2-(2,2-Dichloro-N-(3-(3-(2,6-dichlorophenyl)isoxazol-5-yl)phenyl)acetamido)ethylamino)-3-methyl-1-oxobutan-2-ylcarbamate]: the IC50 in assay [1] is above 20 µM.

Take `COCN(C(=O)C(Cl)Cl)c1ccnc(-c2cc(-c3c(Cl)cccc3Cl)no2)c1` [Cpd. No. 7, 2,2-Dichloro-N-(2-(3-(2,6-dichlorophenyl)isoxazol-5-yl)pyridin-4-yl)-N-(methoxymethyl)acetamide]: the figures for the IC50 in assay [2] and in assay [1] were below 1 µM and 1 to 20 µM, respectively.

Regarding `CC(C)[C@@H](CN(C(=O)C(Cl)Cl)c1cccc(-c2cc(-c3c(Cl)cccc3Cl)no2)c1)NC(=O)C1CC(O)CN1` (stereo partly drawn) [Cpd. No. 42, N-((S)-1-(2,2-Dichloro-N-(3-(3-(2,6-dichlorophenyl)isoxazol-5-yl)phenyl)acetamido)-3-methylbutan-2-yl)-4-hydroxypyrrolidine-2-carboxamide], in assay [2], the IC50 is above 20 µM.

Take `CC(C)(C)OC(=O)NCCN(C(=O)C(Cl)Cl)c1cccc(-c2cc(-c3c(Cl)cccc3Cl)no2)c1` [Cpd. No. 14, tert-Butyl 2-(2,2-Dichloro-N-(3-(3-(2,6-dichlorophenyl)isoxazol-5-yl)phenyl)acetamido)ethylcarbamate]: the IC50 in assay [2] was above 20 µM.

Take `CC(C)[C@@H](CN(C(=O)C(Cl)Cl)c1cccc(-c2cc(-c3c(Cl)cccc3Cl)no2)c1)NC(=O)[C@@H](NC(=O)OC(C)(C)C)c1ccccc1` [Cpd. No. 22, tert-Butyl (S)-2-((S)-1-(2,2-Dichloro-N-(3-(3-(2,6-dichlorophenyl)isoxazol-5-yl)phenyl)acetamido)-3-methylbutan-2-ylamino)-2-oxo-1-phenylethylcarbamate]: the IC50 in assay [2] fell in the range of 1 to 20 µM.

On to `CC(C)[C@@H](CN(C(=O)C(Cl)Cl)c1cccc(-c2cc(-c3c(Cl)cccc3Cl)no2)c1)NC(=O)CN(C)C(=O)OC(C)(C)C` [Cpd. No. 25, (S)-tert-Butyl 2-(1-(2,2-Dichloro-N-(3-(3-(2,6-dichlorophenyl)isoxazol-5-yl)phenyl)acetamido)-3-methylbutan-2-ylamino)-2-oxoethyl(methyl)carbamate], for which the IC50 in assay [2] fell in the range of 1 to 20 µM.

On to `CC(C)[C@H](N)CN(C(=O)C(Cl)Cl)c1cccc(-c2cc(-c3c(Cl)cccc3Cl)no2)c1` [Cpd. No. 39, (S)-N-(2-Amino-3-methylbutyl)-2,2-dichloro-N-(3-(3-(2,6-dichlorophenyl)isoxazol-5-yl)phenyl)acetamide], for which, in assay [2], the half-maximal inhibitory concentration (IC50) was in the range of 1 to 20 µM.

With `CC(C)[C@@H](CN(C(=O)C(Cl)Cl)c1cccc(-c2cc(-c3c(Cl)cccc3Cl)no2)c1)NC(=O)[C@H](CCC(=O)OC(C)(C)C)NC(=O)OC(C)(C)C` [Cpd. No. 26, (S)-tert-Butyl 4-(tert-Butoxycarbonylamino)-5-((S)-1-(2,2-dichloro-N-(3-(3-(2,6-dichlorophenyl)isoxazol-5-yl)phenyl)acetamido)-3-methylbutan-2-ylamino)-5-oxopentanoate], the IC50 in assay [2] was in the range of 1 to 20 µM.

Regarding `CC[C@H](C)[C@H](NC(=O)OC(C)(C)C)C(=O)N[C@H](CN(C(=O)C(Cl)Cl)c1cccc(-c2cc(-c3c(Cl)cccc3Cl)no2)c1)C(C)C` [Cpd. No. 28, tert-Butyl (2S,3S)-1-((S)-1-(2,2-Dichloro-N-(3-(3-(2,6-dichlorophenyl)isoxazol-5-yl)phenyl)acetamido)-3-methylbutan-2-ylamino)-3-methyl-1-oxopentan-2-ylcarbamate], the half-maximal inhibitory concentration (IC50) in assay [1] was above 20 µM.

For the molecule `CC(C)[C@@H](CN(C(=O)C(Cl)Cl)c1cccc(-c2cc(-c3c(Cl)cccc3Cl)no2)c1)NC(=O)OC(C)(C)C` [Cpd. No. 21, (S)-tert-Butyl 1-(2,2-Dichloro-N-(3-(3-(2,6-dichlorophenyl)isoxazol-5-yl)phenyl)acetamido)-3-methylbutan-2-ylcarbamate], the concentration for half-maximal inhibition (IC50) in assay [2] lay in the range of 1 to 20 µM.

Take `CC(C)OCN(C(=O)C(Cl)Cl)c1ccnc(-c2cc(-c3c(Cl)cccc3Cl)no2)c1` [Cpd. No. 9, 2,2-Dichloro-N-(2-(3-(2,6-dichlorophenyl)isoxazol-5-yl)pyridin-4-yl)-N-(isopropoxymethyl)acetamide]: in assay [1], the 50% inhibitory concentration (IC50) is above 20 µM.
